Test results from patent publication US10188634B2, “3-(3H-imidazo[4,5-C]pyridin-2-yl)-1 H-pyrazolo[4,3-B]pyridines and therapeutic uses thereof” (Samumed, LLC, priority 2015, dated 2019).

How the values were obtained:
[1] = test system: primary human mesenchymal stem cells (hMSCs); assay: Induction of chondrogenesis in primary human mesenchymal stem cells (hMSCs), nodule imaging with Rhodamine B / Nile Red; assay type: cell-based; settings: for Emax: hMSCs chondrogenesis, TGF-β3 (10 ng/mL) as positive control, read-out: Max. Activity as % TGF-β3 activity; for EC50: hMSCs, concentration required to induce 50% levels of chondrogenesis vs TGF-β3 positive control, read-out: Conc (nM) of 50% TGF-β3 activity
Procedure, shortened: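 Passage 3-6 hMSCs cultured 6 days at 37° C in incomplete chondrogenic induction medium with compound (2700-10 nM, 96-well; 5000-2.2 nM, 384-well; 0.03% DMSO), TGF-β3 10 ng/mL as positive control. Fixed nodules stained with Rhodamine B/Nile Red, imaged at 531/625 nm; nodule area normalized to DMSO wells for EC50, maximum activity and dose at maximum.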

IL-6 in THP-1 cells = assay: Inhibition of IL-6 in LPS-stimulated THP-1 human monocyte cells (HTRF); assay type: cell-based; settings: IL-6 HTRF; for EC50: 500 ng/mL LPS, 22 hours; for inhibition at 10 µM: LPS, read-out: percent inhibition in brackets (given for EC50 >10 μM)
Procedure, shortened: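 IL-6 was quantified by HTRF ratio after LPS (500 ng/mL, 22 h) stimulation of THP-1 monocytes pretreated 2 h with compound, 10-point 1:3 dilutions from 10 μM, 0.1% DMSO. Cells were held in 1% FBS for 24 h beforehand. Values normalised to DMSO; four-parameter EC50, or % inhibition at 10 μM above that.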

EC50 [1] | EC50 (IL-6 in THP-1 cells) | SMILES | Emax [1] | inhibition at 10 µM (IL-6 in THP-1 cells)
10 nM | 341 nM | CN(C)c1cncc(-c2ccc3[nH]nc(-c4nc5c(-c6cccc(F)c6)cncc5[nH]4)c3n2)c1 [Compound 7, 5-(3-(7-(3-Fluorophenyl)-3H-imidazo[4,5-c]pyridin-2-yl)-1H-pyrazolo[4,3-b]pyridin-5-yl)-N,N-dimethylpyridin-3-amine] | 154% | –
– | 1540 nM | CN(C)Cc1cncc(-c2ccc3[nH]nc(-c4nc5c(-c6cccc(F)c6)cncc5[nH]4)c3n2)c1 [Compound 13, 1-(5-(3-(7-(3-Fluorophenyl)-3H-imidazo[4,5-c]pyridin-2-yl)-1H-pyrazolo[4,3-b]pyridin-5-yl)pyridin-3-yl)-N,N-dimethylmethanamine] | 17% | –
– | > 10000 nM | O=C(Nc1cncc(-c2ccc3[nH]nc(-c4nc5c(-c6cccc(F)c6)cncc5[nH]4)c3n2)c1)C1CC1 [Compound 20, N-(5-(3-(7-(3-Fluorophenyl)-3H-imidazo[4,5-c]pyridin-2-yl)-1H-pyrazolo[4,3-b]pyridin-5-yl)pyridin-3-yl)cyclopropanecarboxamide] | – | 19.6%
– | > 10000 nM | Fc1cccc(-c2cncc3[nH]c(-c4n[nH]c5ccc(-c6cncc(CN7CCC(F)(F)C7)c6)nc45)nc23)c1 [Compound 26, 5-(5-((3,3-Difluoropyrrolidin-1-yl)methyl)pyridin-3-yl)-3-(7-(3-fluorophenyl)-3H-imidazo[4,5-c]pyridin-2-yl)-1H-pyrazolo[4,3-b]pyridine] | 47% | 21%
– | > 10000 nM | CC(C)(C)C(=O)Nc1cncc(-c2ccc3[nH]nc(-c4nc5c(-c6ccc(F)cc6)cncc5[nH]4)c3n2)c1 [Compound 36, N-(5-(3-(7-(4-Fluorophenyl)-3H-imidazo[4,5-c]pyridin-2-yl)-1H-pyrazolo[4,3-b]pyridin-5-yl)pyridin-3-yl)pivalamide] | 42% | 35.9%
– | > 10000 nM | Fc1ccc(-c2cncc3[nH]c(-c4n[nH]c5ccc(-c6cncc(CN7CCCC7)c6)nc45)nc23)cc1 [Compound 42, 3-(7-(4-Fluorophenyl)-3H-imidazo[4,5-c]pyrid-2-yl)-5-(5-(pyrrolidin-1-ylmethyl)pyridin-3-yl)-1H-pyrazolo[4,3-b]pyridine] | 15% | 42%
– | > 10000 nM | Fc1ccccc1-c1cncc2[nH]c(-c3n[nH]c4ccc(-c5ccccn5)nc34)nc12 [Compound 84, 3-(7-(2-Fluorophenyl)-3H-imidazo[4,5-c]pyridin-2-yl)-5-(pyridin-2-yl)-1H-pyrazolo[4,3-b]pyridine] | – | 46.8%
30 nM | 1750 nM | CC(C)Nc1cncc(-c2ccc3[nH]nc(-c4nc5c(-c6cccnc6)cncc5[nH]4)c3n2)c1 [Compound 96, N-Isopropyl-5-(3-(7-(pyridin-3-yl)-3H-imidazo[4,5-c]pyridin-2-yl)-1H-pyrazolo[4,3-b]pyridin-5-yl)pyridin-3-amine] | 65% | –
100 nM | 122 nM | CN(C)c1cncc(-c2ccc3[nH]nc(-c4nc5c(N6CCCCC6)cncc5[nH]4)c3n2)c1 [Compound 175, N,N-dimethyl-5-(3-(7-(piperidin-1-yl)-3H-imidazo[4,5-c]pyridin-2-yl)-1H-pyrazolo[4,3-b]pyridin-5-yl)pyridin-3-amine] | 67% | –
– | > 10000 nM | Cc1ccncc1-c1ccc2[nH]nc(-c3nc4c(-c5ccsc5)cncc4[nH]3)c2n1 [Compound 257, 5-(4-Methylpyridin-3-yl)-3-(7-(thiophen-3-yl)-3H-imidazo[4,5-c]pyridin-2-yl)-1H-pyrazolo[4,3-b]pyridine] | 24% | 11.5%
21 nM | > 10000 nM | CCCC(=O)Nc1cncc(-c2ccc3[nH]nc(-c4nc5c(-c6ccsc6)cncc5[nH]4)c3n2)c1 [Compound 269, N-(5-(3-(7-(Thiophen-3-yl)-3H-imidazo[4,5-c]pyridin-2-yl)-1H-pyrazolo[4,3-b]pyridin-5-yl)pyridin-3-yl)butyramide] | 58% | 45.9%
– | > 10000 nM | c1cc(-c2cncc3[nH]c(-c4n[nH]c5ccc(-c6cncc(CNCC7CCCC7)c6)nc45)nc23)co1 [Compound 305, 1-Cyclopentyl-N-((5-(3-(7-(furan-3-yl)-3H-imidazo[4,5-c]pyridin-2-yl)-1H-pyrazolo[4,3-b]pyridin-5-yl)pyridin-3-yl)methyl)methanamine] | – | 24.5%
– | > 10000 nM | O=C(CC1CCNCC1)Nc1cncc(-c2ccc3[nH]nc(-c4nc5c(-c6ccccn6)cncc5[nH]4)c3n2)c1 [Compound 565, 2-(Piperidin-4-yl)-N-(5-(3-(7-(pyridin-2-yl)-3H-imidazo[4,5-c]pyridin-2-yl)-1H-pyrazolo[4,3-b]pyridin-5-yl)pyridin-3-yl)acetamide] | – | 34.7%
– | 1630 nM | c1ncc(-c2ccc3[nH]nc(-c4nc5c(N6CCCCC6)cncc5[nH]4)c3n2)cc1OCCN1CCCC1 [Compound 582, 3-(7-(Piperidin-1-yl)-3H-imidazo[4,5-c]pyridin-2-yl)-5-(5-(2-(pyrrolidin-1-yl)ethoxy)pyridin-3-yl)-1H-pyrazolo[4,3-b]pyridine] | – | –
– | 1380 nM | Oc1cncc(-c2ccc3[nH]nc(-c4nc5c(N6CCCCC6)cncc5[nH]4)c3n2)c1 [Compound 585, 5-(3-(7-(Piperidin-1-yl)-3H-imidazo[4,5-c]pyridin-2-yl)-1H-pyrazolo[4,3-b]pyridin-5-yl)pyridin-3-ol] | – | –
– | > 10000 nM | Cc1cn(-c2cncc3[nH]c(-c4n[nH]c5ccc(-c6cncc(OCCN(C)C)c6)nc45)nc23)cn1 [Compound 599, N,N-Dimethyl-2-((5-(3-(7-(4-methyl-1H-imidazol-1-yl)-3H-imidazo[4,5-c]pyridin-2-yl)-1H-pyrazolo[4,3-b]pyridin-5-yl)pyridin-3-yl)oxy)ethan-1-amine] | – | 22.5%
– | > 10000 nM | CN1CCN(c2cncc3[nH]c(-c4n[nH]c5ccc(-c6cnccn6)nc45)nc23)CC1 [Compound 620, 3-(7-(4-Methylpiperazin-1-yl)-3H-imidazo[4,5-c]pyridin-2-yl)-5-(pyrazin-2-yl)-1H-pyrazolo[4,3-b]pyridine] | – | 30.6%
– | > 10000 nM | O=C(CC1CCNCC1)Nc1cncc(-c2ccc3[nH]nc(-c4nc5c(-c6ccsc6)cncc5[nH]4)c3n2)c1 [Compound 629, 2-(Piperidin-4-yl)-N-(5-(3-(7-(thiophen-3-yl)-3H-imidazo[4,5-c]pyridin-2-yl)-1H-pyrazolo[4,3-b]pyridin-5-yl)pyridin-3-yl)acetamide] | – | 45.5%
– | > 10000 nM | Cc1ncc(-c2ccc3[nH]nc(-c4nc5c(-c6ccoc6)cncc5[nH]4)c3n2)n1C [Compound 641, 5-(1,2-Dimethyl-1H-imidazol-5-yl)-3-(7-(furan-3-yl)-3H-imidazo[4,5-c]pyridin-2-yl)-1H-pyrazolo[4,3-b]pyridine] | – | 8.9%

SMILES | EC50 [1] | EC50 (IL-6 in THP-1 cells) | Emax [1] | inhibition at 10 µM (IL-6 in THP-1 cells)
Cc1cn(-c2cncc3[nH]c(-c4n[nH]c5ccc(C6=CCNCC6)nc45)nc23)cn1 [Compound 590, 3-(7-(4-Methyl-1H-imidazol-1-yl)-3H-imidazo[4,5-c]pyridin-2-yl)-5-(1,2,3,6-tetrahydropyridin-4-yl)-1H-pyrazolo[4,3-b]pyridine] | – | > 10000 nM | – | 11.5%
